Drawing on ChEMBL document CHEMBL1131256, “Discovery of a novel series of potent and selective substrate-based inhibitors of p60c-src protein tyrosine kinase: conformational and topographical constraints in peptide design” (J Med Chem, 1998), this text covers IC50 and Km for 22 molecules.

The target in series [1] is Proto-oncogene tyrosine-protein kinase Src (Homo sapiens, UniProt P12931). Kind of series: Inhibition of c-Src tyrosine kinase.
In series [2] the target is Tyrosine-protein kinase Lck (Homo sapiens, UniProt P06239). Description: Inhibition of p56 Lck kinase against 100 uM cdc2 substrate.
Series [3] concerns CC[C@H](C)[C@H](NC(=O)[C@@H](N)Cc1ccc(O)cc1)C(=O)N[C@@H](Cc1ccc(O)cc1)C(=O)NCC(=O)N[C@@H](CO)C(=O)N[C@@H](Cc1ccccc1)C(=O)N[C@@H](CCCCN)C(N)=O. Description: Inhibition of c-Src tyrosine kinase against 55 uM YIYGSFK-NH2 substrate. Conditions: Homo sapiens.
In series [4] the target is Tyrosine-protein kinase Lyn (Homo sapiens, UniProt P07948). Description: Inhibition of Lyn kinase against 100 uM cdc2 substrate.

Broadly, the IC50 is the concentration at which inhibition is half-maximal. A lower IC50 goes with greater potency. In general, Km refers to the substrate concentration at which the rate is half of its maximum.

Sequence of Tyrosine-protein kinase Lck (P06239 whole entry): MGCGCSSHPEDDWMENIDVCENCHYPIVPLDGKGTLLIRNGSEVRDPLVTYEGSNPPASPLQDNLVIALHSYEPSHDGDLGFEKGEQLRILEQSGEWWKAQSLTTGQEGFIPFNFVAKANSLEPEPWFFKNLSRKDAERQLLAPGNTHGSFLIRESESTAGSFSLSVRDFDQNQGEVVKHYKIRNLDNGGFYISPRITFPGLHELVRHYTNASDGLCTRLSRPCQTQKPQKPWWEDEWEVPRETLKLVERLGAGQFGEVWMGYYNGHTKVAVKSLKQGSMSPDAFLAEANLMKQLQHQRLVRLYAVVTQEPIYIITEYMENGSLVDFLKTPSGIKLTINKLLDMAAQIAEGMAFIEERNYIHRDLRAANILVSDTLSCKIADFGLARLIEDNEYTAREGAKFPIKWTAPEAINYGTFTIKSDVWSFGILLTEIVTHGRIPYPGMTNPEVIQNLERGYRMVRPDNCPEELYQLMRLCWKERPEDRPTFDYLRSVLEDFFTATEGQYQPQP
Sequence of Tyrosine-protein kinase Lyn (P07948 whole entry): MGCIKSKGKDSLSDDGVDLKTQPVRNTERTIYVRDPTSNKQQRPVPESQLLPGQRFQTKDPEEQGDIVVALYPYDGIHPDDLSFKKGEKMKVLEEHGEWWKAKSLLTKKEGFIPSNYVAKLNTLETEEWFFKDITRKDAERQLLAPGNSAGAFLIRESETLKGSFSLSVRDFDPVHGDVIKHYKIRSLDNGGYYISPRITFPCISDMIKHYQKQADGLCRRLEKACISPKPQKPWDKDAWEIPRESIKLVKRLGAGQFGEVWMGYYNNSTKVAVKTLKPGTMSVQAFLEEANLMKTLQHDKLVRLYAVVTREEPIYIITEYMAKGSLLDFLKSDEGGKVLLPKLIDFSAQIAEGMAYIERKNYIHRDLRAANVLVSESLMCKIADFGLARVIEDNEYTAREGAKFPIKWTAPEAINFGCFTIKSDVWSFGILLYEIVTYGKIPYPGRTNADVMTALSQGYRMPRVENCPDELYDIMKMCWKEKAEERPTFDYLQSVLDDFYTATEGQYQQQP

On to `CC[C@H](C)[C@H](NC(=O)[C@@H](N)CS)C(=O)N[C@@H](Cc1ccc(O)cc1)C(=O)NCC(=O)N[C@@H](CO)C(=O)N[C@@H](Cc1ccccc1)C(=O)N[C@@H](CS)C(=O)N[C@@H](CCCCN)C(=O)N[C@@H](CCCCN)C(N)=O`, for which the IC50 in series [1] was determined as 6.9 µM.

`C[C@H](c1ccc2ccccc2c1)[C@H]1NC(=O)[C@H](NC(=O)[C@@H](N)Cc2ccc(O)cc2)C(C)(C)SSC[C@@H](C(=O)N[C@@H](CCCCN)C(=O)N[C@@H](CCCNC(=N)N)C(N)=O)NC(=O)[C@H](Cc2ccccc2)NC(=O)[C@H](CO)NC(=O)CNC1=O`: the IC50 in series [2] turned out to be 470 µM.

Molecule `CC(=O)N[C@@H]1C(=O)N[C@@H](Cc2ccc(O)cc2)C(=O)NCC(=O)N[C@@H](CO)C(=O)N[C@@H](Cc2ccccc2)C(=O)N[C@H](C(=O)N[C@@H](CCCCN)C(=O)N[C@@H](CCCCN)C(N)=O)CSSC1(C)C` yielded an IC50 in series [1] of 20 µM.

On to `CC1(C)SSC[C@@H](C(=O)N[C@@H](CCCNC(=N)N)C(N)=O)NC(=O)[C@H](Cc2ccccc2)NC(=O)[C@H](CO)NC(=O)CNC(=O)[C@H](Cc2ccc(O)cc2)NC(=O)[C@H]1NC(=O)[C@@H](N)Cc1ccc(O)cc1`, for which half-maximal inhibition in series [1] (IC50) required 4.5 µM.

With `CC(=O)N[C@@H]1C(=O)N[C@@H](Cc2ccc(O)cc2)C(=O)NCC(=O)N[C@@H](CO)C(=O)N[C@@H](Cc2ccccc2)C(=O)N[C@H](C(=O)N[C@@H](CCCCN)C(=O)N[C@@H](CCCN=C(N)N)C(N)=O)CSSC1(C)C`, 11 µM corresponded to half-maximal inhibition in series [1] (IC50).

In turn, `CC1(C)SSC[C@@H](C(=O)N[C@@H](CCCCN)C(=O)N[C@@H](CCCN=C(N)N)C(N)=O)NC(=O)[C@H](Cc2ccccc2)NC(=O)[C@H](CO)NC(=O)CNC(=O)[C@H](Cc2ccc(O)cc2)NC(=O)[C@H]1N` registered an IC50 in series [1] of 20 µM.

In series [1], `CC(=O)N[C@@H](Cc1ccc(O)cc1)C(=O)N[C@@H]1C(=O)N[C@@H](Cc2ccc(O)cc2)C(=O)NCC(=O)N[C@@H](CO)C(=O)N[C@@H](Cc2ccccc2)C(=O)N[C@H](C(=O)N[C@@H](CCCCN)C(=O)N[C@@H](CCCCN)C(N)=O)CSSC1(C)C` displayed a half-maximal inhibitory concentration (IC50) of 26 µM.

Consider `CC1(C)SSC[C@@H](C(=O)N[C@@H](CCCCN)C(=O)N[C@@H](CCCNC(=N)N)C(N)=O)NC(=O)[C@H](Cc2ccccc2)NC(=O)[C@H](CO)NC(=O)CNC(=O)[C@H](Cc2ccc(O)cc2)NC(=O)[C@H]1NC(=O)[C@@H](N)Cc1ccc(O)cc1`, for which the IC50 in series [1] was found to be 1.2 µM.

In series [2], `C[C@H](c1ccc2ccccc2c1)[C@@H]1NC(=O)[C@H](NC(=O)[C@@H](N)Cc2ccc(O)cc2)C(C)(C)SSC[C@@H](C(=O)N[C@@H](CCCCN)C(=O)N[C@@H](CCCNC(=N)N)C(N)=O)NC(=O)[C@H](Cc2ccccc2)NC(=O)[C@H](CO)NC(=O)CNC1=O` showed an IC50 of 220 µM.

Turning to `C[C@@H](c1ccc2ccccc2c1)[C@H]1NC(=O)[C@H](NC(=O)[C@@H](N)Cc2ccc(O)cc2)C(C)(C)SSC[C@@H](C(=O)N[C@@H](CCCCN)C(=O)N[C@@H](CCCNC(=N)N)C(N)=O)NC(=O)[C@H](Cc2ccccc2)NC(=O)[C@H](CO)NC(=O)CNC1=O`, half-maximal inhibition in series [2] (IC50) required 260 µM.

In series [1], `CC1(C)SSC[C@@H](C(=O)N[C@@H](CCCNC(=N)N)C(N)=O)NC(=O)[C@H](Cc2ccccc2)NC(=O)[C@H](CO)NC(=O)CNC(=O)[C@H](Cc2ccc3ccccc3c2)NC(=O)[C@@H]1NC(=O)[C@@H](N)Cc1ccc(O)cc1` registered an IC50 of 3.3 µM.

On to “Proto-oncogene tyrosine-protein kinase Src (Homo sapiens) (from UniProt P12931)”, for which the Km in series [3] came out at 55 µM.

In series [2], `C[C@@H](c1ccc2ccccc2c1)[C@@H]1NC(=O)[C@H](NC(=O)[C@@H](N)Cc2ccc(O)cc2)C(C)(C)SSC[C@@H](C(=O)N[C@@H](CCCCN)C(=O)N[C@@H](CCCNC(=N)N)C(N)=O)NC(=O)[C@H](Cc2ccccc2)NC(=O)[C@H](CO)NC(=O)CNC1=O` showed an IC50 of 260 µM.

`CC1(C)SSC[C@@H](C(=O)N[C@@H](CCCCN)C(=O)N[C@@H](CCCCN)C(N)=O)NC(=O)[C@H](Cc2ccccc2)NC(=O)[C@H](CO)NC(=O)CNC(=O)[C@H](Cc2ccc(O)cc2)NC(=O)[C@H]1N` yielded an IC50 in series [1] of 14.4 µM.

`CC(C)(S)[C@H](NC(=O)[C@@H](N)Cc1ccc(O)cc1)C(=O)N[C@@H](Cc1ccc2ccccc2c1)C(=O)NCC(=O)N[C@@H](CO)C(=O)N[C@@H](Cc1ccccc1)C(=O)N[C@@H](CS)C(=O)N[C@@H](CCCCN)C(=O)N[C@@H](CCCCN)C(N)=O` came in with an IC50 in series [1] of 2.7 µM.

Regarding `CC[C@H](C)[C@@H]1NC(=O)[C@@H](N)CSSC[C@@H](C(=O)N[C@@H](CCCCN)C(=O)N[C@@H](CCCCN)C(=O)O)NC(=O)[C@H](Cc2ccccc2)NC(=O)[C@H](CO)NC(=O)CNC(=O)[C@H](Cc2ccc(O)cc2)NC1=O`, the IC50 in series [1] was found to be 2.7 µM.

Molecule `CC(C)(S)[C@H](NC(=O)[C@@H](N)Cc1ccc(O)cc1)C(=O)N[C@@H](Cc1ccc(O)cc1)C(=O)NCC(=O)N[C@@H](CO)C(=O)N[C@@H](Cc1ccccc1)C(=O)N[C@@H](CS)C(=O)N[C@@H](CCCCN)C(=O)N[C@@H](CCCCN)C(N)=O` gave an IC50 in series [1] of 5.3 µM.

Take `CC(=O)N[C@@H](Cc1ccc(O)cc1)C(=O)N[C@@H]1C(=O)N[C@@H](Cc2ccc(O)cc2)C(=O)NCC(=O)N[C@@H](CO)C(=O)N[C@@H](Cc2ccccc2)C(=O)N[C@H](C(=O)N[C@@H](CCCCN)C(=O)N[C@@H](CCCN=C(N)N)C(N)=O)CSSC1(C)C`: the IC50 in series [1] amounted to 6.5 µM.

`CC1(C)SSC[C@@H](C(=O)N[C@@H](CCCCN)C(=O)N[C@@H](CCCN=C(N)N)C(N)=O)NC(=O)[C@H](Cc2ccccc2)NC(=O)[C@H](CO)NC(=O)CNC(=O)[C@H](Cc2cc(I)c(O)c(I)c2)NC(=O)[C@@H]1NC(=O)[C@@H](N)Cc1ccc(O)cc1`: the IC50 in series [2] is 11 µM; in series [4], more than 800 µM.

As for `CC1(C)SSC[C@@H](C(=O)N[C@@H](CCCCN)C(=O)N[C@@H](CCCNC(=N)N)C(N)=O)NC(=O)[C@H](Cc2ccccc2)NC(=O)[C@H](CO)NC(=O)CNC(=O)[C@H](Cc2ccc(O)c(I)c2)NC(=O)[C@@H]1NC(=O)[C@@H](N)Cc1ccc(O)cc1`, the IC50 in series [2] is 11 µM; in series [4], more than 800 µM.

`CC1(C)SSC[C@@H](C(=O)N[C@@H](CCCCN)C(N)=O)NC(=O)[C@H](Cc2ccccc2)NC(=O)[C@H](CO)NC(=O)CNC(=O)[C@H](Cc2ccc(O)cc2)NC(=O)[C@H]1NC(=O)[C@@H](N)Cc1ccc(O)cc1` showed an IC50 in series [1] of 6.7 µM.

`C[C@H]1NC(=O)[C@H](Cc2ccc(O)cc2)NC(=O)[C@@H](NC(=O)[C@@H](N)Cc2ccc(O)cc2)C(C)(C)SSC[C@@H](C(=O)N[C@@H](CCCCN)C(=O)N[C@@H](CCCCN)C(N)=O)NC(=O)[C@H](Cc2ccccc2)NC(=O)[C@H](CO)NC1=O` registered an IC50 in series [1] of 18 µM.
